Data set [1] has as its system ZR-75-30 (human breast cancer cell). Put plainly: MTT assay, in vitro inhibition of proliferation of human tumor cells. It counts as cell-based. The following applies: for IC50: Homo sapiens, ZR-75-30, 72 h; for ZR-75-30 100 μg/ml IC %: inhibition at 100 μg/ml, 72 h. The procedure: (§1) The tumor cell lines used in the experiments were as follows: A549 (human lung cancer cells), HCT116 (human colon cancer cells), HepG2 (human hepatoma cells), ZR-75-30 (human breast cancer cell), purchased from Shanghai Institute of Pharmaceutical Industry.
(§2) The sample was dissloved in DMSO (Merck), and PBS was added to prepare a 1000 μg/mL of solution or a uniform suspension. And then, DMSO-containing PBS (−) was added to dilute the solution or suspension. The positive control medicaments were gemcitabine (GEM) and LY2334737 developed by Eli Lilly and Company.
(§3) MTT assay: 100 μL cell suspension (4˜5×10^4 cells/mL) was added into each well of 96-well plate, and cultured in 37° C., 5% CO2 incubator. After 24 h, the sample solution was added in duplicate, 10 μL/well, and incubated at 37° C., 5% CO2 for 72 h. 20 μL MTT solution (5 mg/mL) was added into each well. After 4 h, a dissolving solution was added, 100 μL/well. The plate was placed into the incubator. After dissolved, OD value at 570 nm was measured on MK-2 automatic microplate reader.
(Tetrazolium assays rely on reduction of a dye to a coloured formazan, in cell work by metabolically active cells.)

For data set [2], the system named is HepG2 (human hepatoma cells). Described as above. Conditions: for IC50: Homo sapiens, HepG2, 72 h; for HepG2 100 μg/ml IC %: inhibition at 100 μg/ml, 72 h. It counts as cell-based. As to the method:
as §1, §2, §3

In data set [3] the test system is HCT116 (human colon cancer cells). Described as above. The following applies: for IC50: Homo sapiens, HCT-116, 72 h; for HCT116 100 μg/ml IC %: inhibition at 100 μg/ml, 72 h. Type of data set: cell-based. The procedure:
as §1, §2, §3

For data set [4], the system named is A549 (human lung cancer cells). Described as above. It counts as cell-based. The following applies: for IC50: Homo sapiens, A549, 72 h; for A549 100 μg/ml IC %: inhibition at 100 μg/ml, 72 h. The procedure:
as §1, §2, §3

Data set [5] concerns hepatitis C virus. Conditions: patients, minimum dose, within a few days (1-2 days in some cases); cited from earlier work.
In data set [6] the test system is human colon cancer cells HCT116 xenografts. Nature of the data set: In vivo antitumor activity test, xenografts in nude mice. Conditions: dosed 0.1-10 mg/kg body weight, better than LY2334737 at the same dose. As to the method: Some of the compounds were tested in vivo using human colon cancer cells HCT116 xenografts in nude mice according to a literature method (Wei Hong, Medical Laboratory Animal Science, Sichuan Science and Technology Press, 2nd edition, Chengdu, 2001, 595-596).

Data set [7] has as its system NCI 60 human tumor cells. Nature of the data set: NCI in vitro cytotoxic activity screening. Type of data set: cell-based. The following applies: for GI50: Homo sapiens, derived from MGM; for MGM: NCI 60 human tumor cells, GI50 in M (log). As to the method:
The cytotoxic activities of Compounds SYN-141 and SYN-165 were assayed in NCI systemactically.

Molecules are shown by their SMILES. Converted amounts (≈) assume the structure as drawn. Like-named read-outs stand apart in the source and are kept apart here.

Consider `Nc1ccn([C@@H]2O[C@H](CO)[C@@H](O)C2(F)F)c(=O)n1` [GEM, gemcitabine], for which, in data set [1], the 50% inhibitory concentration (IC50) (as a rule, the point on the concentration scale where inhibition reaches its midpoint) was 0.454 mg/L (≈ 1.72 µM) and the “ZR-75-30 100 μg/ml IC %” value stood at 96.60%. Further, in data set [2], the IC50 came to 0.263 mg/L (≈ 0.999 µM) and the “HepG2 100 μg/ml IC %” value is 53.34%. In data set [3], the IC50 was found to be 0.0237 mg/L (≈ 0.09 µM) and the “HCT116 100 μg/ml IC %” value came to 78.07%. In data set [4], the IC50 was found to be 3.74 mg/L (≈ 14.2 µM) and the “A549 100 μg/ml IC %” value is on record as 57.57%. For the same compound, the “reduction of hepatitis C viral load” value in data set [5] was at least 2 logarithmic unit.
For `CCCC(CCC)C(=O)Nc1ccn([C@@H]2O[C@H](CO)[C@@H](O)C2(F)F)c(=O)n1` [LY-2334737, N4-valproyl gemcitabine, reference compound], in data set [1], 29.3 mg/L (≈ 75.3 µM) corresponded to half-maximal inhibition (IC50) and the “ZR-75-30 100 μg/ml IC %” value was 78.36%. Also, in data set [2], half-maximal inhibition (IC50) required 1.78 mg/L (≈ 4.57 µM) and the “HepG2 100 μg/ml IC %” value is 67.52%. Further, in data set [3], the IC50 came to 3.81 mg/L (≈ 9.78 µM) and the “HCT116 100 μg/ml IC %” value is recorded as 84.51%. Besides, in data set [4], the IC50 is 18.3 mg/L (≈ 46.9 µM) and the “A549 100 μg/ml IC %” value is on record as 60.05%.
`CCCC(=O)Nc1ccn([C@@H]2O[C@H](CO)C(O)C2(F)F)c(=O)n1` (stereo partly drawn) [SYN-140, N^4-n-butyryl gemcitabine]: the melting point (usually the temperature of the solid-liquid transition) was 198 °C. Further, in data set [1], the half-maximal inhibitory concentration (IC50) came out at 3.01 mg/L (≈ 9.03 µM) and the “ZR-75-30 100 μg/ml IC %” value was determined as 89.52%. Besides, in data set [2], the half-maximal inhibitory concentration (IC50) was 84.4 mg/L (≈ 253 µM) and the “HepG2 100 μg/ml IC %” value worked out at 50.42%. Also, in data set [3], inhibition was half-maximal at 0.395 mg/L (≈ 1.19 µM) (IC50) and the “HCT116 100 μg/ml IC %” value amounted to 87.79%. Further, in data set [4], half-maximal inhibition (IC50) required 4.26 mg/L (≈ 12.8 µM) and the “A549 100 μg/ml IC %” value was 64.84%. The “in vivo antitumor activity” value in data set [6] was “potent in vivo antitumor activity”.
With `O=C(CCCc1ccccc1)Nc1ccn([C@@H]2O[C@H](CO)C(O)C2(F)F)c(=O)n1` (stereo partly drawn) [SYN-141, N^4-(4-phenyl)butyryl Gemcitabine], the melting point was determined as 111 °C. For the same compound, in data set [1], inhibition was half-maximal at 4.7 mg/L (≈ 11.5 µM) (IC50) and the “ZR-75-30 100 μg/ml IC %” value was found to be 91.63%. In data set [2], the IC50 stood at 7.2 mg/L (≈ 17.6 µM) and the “HepG2 100 μg/ml IC %” value is recorded as 62.48%. In data set [3], the IC50 is 0.269 mg/L (≈ 0.657 µM) and the “HCT116 100 μg/ml IC %” value turned out to be 92.46%. In data set [4], the 50% inhibitory concentration (IC50) is 5.6 mg/L (≈ 13.7 µM) and the “A549 100 μg/ml IC %” value was determined as 56.38%. In data set [6], the “in vivo antitumor activity” value is recorded as “potent in vivo antitumor activity”. Besides, the GI50 (commonly the concentration giving 50% growth inhibition) in data set [7] (read-out: total average GI50 against 60 human tumor cell lines) stood at 0.62 µM. Moreover, the MGM in data set [7] is −6.21.
`CCCCC(=O)Nc1ccn([C@@H]2O[C@H](CO)C(O)C2(F)F)c(=O)n1` (stereo partly drawn) [SYN-147, N^4-n-valeryl Gemcitabine Gemcitabine]: the melting point came out at 184 °C. In data set [1], the IC50 turned out to be 1.13 mg/L (≈ 3.25 µM) and the “ZR-75-30 100 μg/ml IC %” value is listed as 90.22%. Moreover, in data set [2], the IC50 stood at 0.246 mg/L (≈ 0.708 µM) and the “HepG2 100 μg/ml IC %” value is recorded as 59.49%. Also, in data set [3], the IC50 amounted to 0.193 mg/L (≈ 0.556 µM) and the “HCT116 100 μg/ml IC %” value worked out at 88.14%. Also, in data set [4], 7.82 mg/L (≈ 22.5 µM) corresponded to half-maximal inhibition (IC50) and the “A549 100 μg/ml IC %” value was 58.09%. Besides, the “in vivo antitumor activity” value in data set [6] is given as “potent in vivo antitumor activity”.
The compound `CCCCCCCC(=O)Nc1ccn([C@@H]2O[C@H](CO)C(O)C2(F)F)c(=O)n1` (stereo partly drawn) [SYN-165, N^4-n-octanoyl Gemcitabine] gave a melting point of 139 °C. For the same compound, in data set [1], 0.135 mg/L (≈ 0.347 µM) corresponded to half-maximal inhibition (IC50) and the “ZR-75-30 100 μg/ml IC %” value came out at 96.30%. In data set [2], half-maximal inhibition (IC50) was put at 0.123 mg/L (≈ 0.316 µM) and the “HepG2 100 μg/ml IC %” value came out at 77.90%. In data set [3], the IC50 is 0.154 mg/L (≈ 0.395 µM) and the “HCT116 100 μg/ml IC %” value was determined as 99.01%. Also, in data set [4], 42.5 mg/L (≈ 109 µM) corresponded to half-maximal inhibition (IC50) and the “A549 100 μg/ml IC %” value is 55.82%. Also, the “in vivo antitumor activity” value in data set [6] is given as “potent in vivo antitumor activity”. Besides, the GI50 in data set [7] (read-out: total average GI50 against 60 human tumor cells) is 0.0758 µM. The compound further returned an MGM in data set [7] of −7.12.
